In assay [1] the test system is M2 and M3 receptors. As to conditions: background statement; compounds exhibit M3 antagonist activity; cited from earlier work.
Assay [2] has as its target T1, human M3 receptors (Homo sapiens, UniProt P20309).
T1 construct: purchased Receptor Biology; host or cells: CHO-K1 cells transfected with the human receptor (membranes)
In words: Binding test to cloned human M3 muscarinic receptor ([3H]-NMS displacement, CHO-K1 membranes). As to conditions: membranes of CHO-K1 cells transfected with human M3; [3H]-NMS; mean of two independent experiments in duplicate; read-out: M3 (human M3 antagonist activity, binding affinity constant Ki). The procedure: (§1) Membranes from CHO—K1 cells transfected with human M2 or M3 receptors (Receptor Biology) were used. The summarised experimental procedure for both receptors was the following: membranes (15–20 μg) were incubated with [^3H]-NMS (0.3–0.5 nM) for 60 min at 25° C., in presence or absence of the antagonists. Incubation was carried out in 96 wells polystyrene microplates in a total incubation volume of 0.2 mL of PBS pH 7.4. Non specific binding was determined in parallel assays in presence of atropine (5 μM). Samples were filtered through type GF/C glass fibre, preincubated with PEI 0.3%. Filters were washed 3–4 times with 50 mM Tris-HCl, 0.9% NaCl, pH 7.4 at 4° C., and dried at 50° C. for 45 min. Filter bound radioactivity was quantified by liquid scintillation counting.
(§2) For the calculation of the inhibition constant (Ki), displacement curves were analysed by non-linear regression (GraphPad Prism). Dissociation constant (KD) of [^3H]-NMS for each receptor was obtained through the saturation curves obtained in the same conditions as the experiments carried out with the antagonists.

Assay [3] concerns the target T2, human M2 receptors (Homo sapiens, UniProt P08172).
T2 construct: purchased Receptor Biology; host or cells: CHO-K1 cells transfected with the human receptor (membranes)
T2 sequence (P08172 1-466): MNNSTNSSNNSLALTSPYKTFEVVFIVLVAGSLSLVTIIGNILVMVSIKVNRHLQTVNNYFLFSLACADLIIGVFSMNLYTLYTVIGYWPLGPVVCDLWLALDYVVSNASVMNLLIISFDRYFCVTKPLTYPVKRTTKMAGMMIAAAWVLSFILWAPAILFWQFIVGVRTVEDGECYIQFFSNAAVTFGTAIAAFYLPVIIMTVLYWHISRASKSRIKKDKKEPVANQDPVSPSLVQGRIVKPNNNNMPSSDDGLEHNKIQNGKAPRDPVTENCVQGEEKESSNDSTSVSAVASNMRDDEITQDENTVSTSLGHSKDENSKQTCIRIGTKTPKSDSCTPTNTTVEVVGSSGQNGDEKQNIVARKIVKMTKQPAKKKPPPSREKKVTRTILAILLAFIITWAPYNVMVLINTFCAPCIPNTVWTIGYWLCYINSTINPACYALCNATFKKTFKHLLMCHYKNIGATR
Briefly: Binding test to cloned human M2 muscarinic receptor ([3H]-NMS displacement, CHO-K1 membranes), reported as M2/M3 ratio. As to conditions: value greater than 1 indicates selectivity for the M3 receptor. As for the experimental part: as §1, §2

This is an account of results in patent US7115629B2, “Carbamates derived from arylalkylamines” (Laboratorios S.A.L.V.A.T., S.A., priority 2000, dated 2006).

T1 sequence (P20309 whole entry): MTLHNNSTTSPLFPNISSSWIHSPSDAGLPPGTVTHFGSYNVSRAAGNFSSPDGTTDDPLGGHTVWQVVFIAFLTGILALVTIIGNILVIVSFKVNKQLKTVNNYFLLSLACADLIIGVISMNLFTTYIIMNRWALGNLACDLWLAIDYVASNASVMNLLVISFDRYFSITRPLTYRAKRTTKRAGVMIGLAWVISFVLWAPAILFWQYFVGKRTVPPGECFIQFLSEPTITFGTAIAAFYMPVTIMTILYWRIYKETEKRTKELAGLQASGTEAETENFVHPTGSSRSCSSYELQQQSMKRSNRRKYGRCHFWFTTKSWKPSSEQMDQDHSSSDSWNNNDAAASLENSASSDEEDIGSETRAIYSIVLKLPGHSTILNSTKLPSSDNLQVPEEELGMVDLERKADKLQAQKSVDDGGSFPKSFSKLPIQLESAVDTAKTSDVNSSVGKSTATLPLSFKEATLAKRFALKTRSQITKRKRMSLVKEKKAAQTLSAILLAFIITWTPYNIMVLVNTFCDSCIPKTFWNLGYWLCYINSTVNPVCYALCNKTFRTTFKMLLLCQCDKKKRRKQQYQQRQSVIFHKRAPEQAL

For the compound `NC(=O)C(c1ccccc1)(c1ccccc1)[C@@H]1CCN(CCc2ccc3c(c2)CCO3)C1` [DARIFENACIN, darifenacin], the “affinity towards the M2 receptor” value in assay [1] was “without any significant affinity”.

On to `O=C(OC1CN2CCC1CC2)N1CCc2ccccc2[C@@H]1c1ccccc1` (some centres unmarked) [YM-905, reference compound], for which the Ki in assay [2] stood at 1.72 nM. Also, the “affinity towards the M2 receptor” value in assay [1] was “without any significant affinity”. In assay [3], the “M2/M3 (ratio between M2 and M3 receptor affinities)” value came to 24.

Consider `C=C(C)C1CCC(CN(C(=O)OC2CN3CCC2CC3)c2cccc(C)c2)CC1` (centres unmarked) [Example 59], for which the Ki in assay [2] amounted to 0.77 nM. In addition, the “M2/M3 (ratio between M2 and M3 receptor affinities)” value in assay [3] worked out at 90.

In the case of `Cc1cccc(N(Cc2ccc3c(c2)OCCO3)C(=O)OC2CN3CCC2CC3)c1` (centres unmarked) [Example 53], the inhibition constant (Ki) in assay [2] was 1.25 nM. The “M2/M3 (ratio between M2 and M3 receptor affinities)” value in assay [3] is reported as 26.

For the compound `Cc1cccc(N(CC2CCC(C)CC2)C(=O)OC2CN3CCC2CC3)c1` (centres unmarked) [Example 58], the inhibitory constant (Ki) in assay [2] amounted to 0.088 nM. Besides, the “M2/M3 (ratio between M2 and M3 receptor affinities)” value in assay [3] was 93.

For `Cc1cccc(N(Cc2cccc(O)c2)C(=O)OC2CN3CCC2CC3)c1` (centres unmarked) [Example 46], the inhibition constant Ki in assay [2] amounted to 0.15 nM. In addition, the “M2/M3 (ratio between M2 and M3 receptor affinities)” value in assay [3] is 33.

As to `Cc1ccccc1N(Cc1cc(F)c(F)cc1F)C(=O)OC1C[N+]2(C)CCC1CC2.[I-]` (centres unmarked) [Example 66], the Ki in assay [2] was 4.7 nM. The “M2/M3 (ratio between M2 and M3 receptor affinities)” value in assay [3] was 18.

As for `COc1ccc(F)c(CN(C(=O)OC2CN3CCC2CC3)c2ccccc2)c1` (centres unmarked) [Example 25], in assay [2], the Ki was 1.7 nM. In addition, in assay [3], the “M2/M3 (ratio between M2 and M3 receptor affinities)” value was determined as 19.

Consider `NC(=O)c1ccc(CN(C(=O)OC2CN3CCC2CC3)c2ccccc2)cc1` (centres unmarked) [Example 44], for which, in assay [2], the inhibition constant Ki turned out to be 7.7 nM. Also, in assay [3], the “M2/M3 (ratio between M2 and M3 receptor affinities)” value is given as 6.

With `Cc1ccc(F)c(N(Cc2ccc(Cl)cc2)C(=O)OC2CN3CCC2CC3)c1` (centres unmarked) [Example 19], the Ki in assay [2] is 1.2 nM. Also, in assay [3], the “M2/M3 (ratio between M2 and M3 receptor affinities)” value came out at 23.

As to `C[N+]12CCC(CC1)C(OC(=O)N(Cc1ccccc1)c1ccccc1F)C2.[I-]` (centres unmarked) [Example 68], the inhibition constant (Ki) in assay [2] was 9.9 nM. Moreover, the “M2/M3 (ratio between M2 and M3 receptor affinities)” value in assay [3] is given as 5.

Take `O=C(OC1CN2CCC1CC2)N(Cc1cccc(F)c1)c1cccc(F)c1` (centres unmarked) [Example 17]: the inhibitory constant (Ki) in assay [2] was 0.054 nM. For the same compound, the “M2/M3 (ratio between M2 and M3 receptor affinities)” value in assay [3] was determined as 196.

For the compound `Cc1cccc(N(Cc2cc(F)cc(F)c2F)C(=O)OC2CN3CCC2CC3)c1` (centres unmarked) [Example 34], the inhibition constant (Ki) in assay [2] was found to be 0.3 nM. In addition, the “M2/M3 (ratio between M2 and M3 receptor affinities)” value in assay [3] stood at 90.

As to `C[N+]12CCC(CC1)C(OC(=O)N(CC1CCCCC1)c1ccccc1F)C2.[I-]` (centres unmarked) [Example 69], the Ki in assay [2] is 14.1 nM. Further, the “M2/M3 (ratio between M2 and M3 receptor affinities)” value in assay [3] came out at 8.

Regarding `O=C(OC1CN2CCC1CC2)N(Cc1ccc2c(c1)OCO2)c1ccccc1` (centres unmarked) [Example 52], in assay [2], the inhibition constant (Ki) stood at 1.2 nM. Also, the “M2/M3 (ratio between M2 and M3 receptor affinities)” value in assay [3] turned out to be 25.

On to `COc1cc(CN(C(=O)OC2CN3CCC2CC3)c2cccc(Cl)c2)ccc1OCc1ccccc1` (centres unmarked) [Example 51], for which, in assay [2], the inhibition constant (Ki) came to 51.9 nM. The “M2/M3 (ratio between M2 and M3 receptor affinities)” value in assay [3] amounted to 3.

In the case of `O=C(OC1CN2CCC1CC2)N(Cc1ccc(F)c(Cl)c1)c1ccccc1` (centres unmarked) [Example 28], the inhibition constant Ki in assay [2] came to 1.5 nM. For the same compound, the “M2/M3 (ratio between M2 and M3 receptor affinities)” value in assay [3] worked out at 35.

`O=C(OC1CN2CCC1CC2)N(CC1CCC1)c1ccccc1` (centres unmarked) [Example 55]: in assay [2], the inhibition constant Ki is 0.35 nM. In addition, the “M2/M3 (ratio between M2 and M3 receptor affinities)” value in assay [3] stood at 110.

In the case of `O=C(OC1CN2CCC1CC2)N(Cc1ccccc1)c1cccc(Cl)c1` (centres unmarked) [Example 6], the Ki in assay [2] was 0.21 nM. In addition, the “M2/M3 (ratio between M2 and M3 receptor affinities)” value in assay [3] was found to be 87.

With `Cc1cccc(C)c1N(Cc1ccccc1)C(=O)OC1CN2CCC1CC2` (centres unmarked) [Example 11], the inhibition constant Ki in assay [2] stood at 6.12 nM. Besides, the “M2/M3 (ratio between M2 and M3 receptor affinities)” value in assay [3] came out at 11.

In the case of `COc1ccc(CN(C(=O)OC2CN3CCC2CC3)c2cccc(Cl)c2)c(F)c1` (centres unmarked) [Example 23], in assay [2], the Ki was found to be 0.73 nM. In assay [3], the “M2/M3 (ratio between M2 and M3 receptor affinities)” value is 118.

Consider `Cc1cccc(N(Cc2cc(F)cc(F)c2)C(=O)OC2CN3CCC2CC3)c1` (centres unmarked) [Example 30], for which the Ki in assay [2] was 0.09 nM. For the same compound, the “M2/M3 (ratio between M2 and M3 receptor affinities)” value in assay [3] is recorded as 74.

With `N#Cc1ccc(N(Cc2ccccc2)C(=O)OC2CN3CCC2CC3)cc1` (centres unmarked) [Example 13], the inhibition constant (Ki) in assay [2] was found to be 4.31 nM. In addition, the “M2/M3 (ratio between M2 and M3 receptor affinities)” value in assay [3] was 17.

Turning to `Cc1cccc(N(Cc2ccccc2)C(=O)OC2CN3CCC2CC3)c1` (centres unmarked) [Example 10], the inhibition constant Ki in assay [2] was 0.14 nM. For the same compound, the “M2/M3 (ratio between M2 and M3 receptor affinities)” value in assay [3] worked out at 44.

As for `O=C(OC1CN2CCC1CC2)N(CC1CC1)c1ccccc1` (centres unmarked) [Example 54], in assay [2], the Ki came to 0.6 nM. Further, in assay [3], the “M2/M3 (ratio between M2 and M3 receptor affinities)” value turned out to be 32.

Regarding `O=C(OC1CN2CCC1CC2)N(Cc1ccc(O)cc1)c1ccccc1` (centres unmarked) [Example 47], in assay [2], the Ki worked out at 5.7 nM. In assay [3], the “M2/M3 (ratio between M2 and M3 receptor affinities)” value is reported as 33.

`Cc1cccc(N(Cc2cc(F)c(F)cc2F)C(=O)OC2CN3CCC2CC3)c1` (centres unmarked) [Example 35]: in assay [2], the inhibition constant Ki turned out to be 0.031 nM. Further, the “M2/M3 (ratio between M2 and M3 receptor affinities)” value in assay [3] was found to be 839.

`O=C(OC1CN2CCC1CC2)N(CC1CC2CCC1C2)c1cccc(F)c1` (centres unmarked) [Example 62]: in assay [2], the Ki amounted to 0.22 nM. In addition, the “M2/M3 (ratio between M2 and M3 receptor affinities)” value in assay [3] came to 115.

In the case of `O=C(OC1CN2CCC1CC2)N(Cc1cccc(OC(F)(F)F)c1)c1ccccc1` (centres unmarked) [Example 49], the Ki in assay [2] was 10.1 nM. The “M2/M3 (ratio between M2 and M3 receptor affinities)” value in assay [3] was 7.

As to `O=C(OC1CN2CCC1CC2)N(Cc1cc(F)c(F)c(F)c1)c1cccc(F)c1` (centres unmarked) [Example 36], in assay [2], the Ki was determined as 0.04 nM. For the same compound, the “M2/M3 (ratio between M2 and M3 receptor affinities)” value in assay [3] is reported as 545.

For the compound `O=C(OC1CN2CCC1CC2)N(Cc1ccccc1)c1ccc2c(c1)CCC2` (centres unmarked) [Example 12], the inhibition constant Ki in assay [2] amounted to 30.7 nM. The “M2/M3 (ratio between M2 and M3 receptor affinities)” value in assay [3] amounted to 6.
